Legend:
Mus musculus [1] = assay: Anesthetic activity in iv dosed ICR mouse assessed as recovery time of righting reflex by measuring the ability to grip and climb a steel frame and ambulated normally administered 7 to 8 doses at 10 secs for each dose; type: functional
Mus musculus [2] = assay: Anesthetic activity in iv dosed ICR mouse assessed as anesthetic duration time administered 7 to 8 doses at 10 secs for each dose; type: functional
Mus musculus [3] = assay: Anesthetic activity in iv dosed ICR mouse assessed as dose required to produce 10 min of anesthesia administered 7 to 8 doses at 10 secs for each dose; type: functional
[4] = Toxicity in iv dosed ICR mouse administered 7 to 8 doses at 10 secs for each dose; type: organism-based; details: in vivo
Mus musculus [5] = assay: Anesthetic activity in iv dosed ICR mouse assessed as onset time for loss of righting reflex administered 7 to 8 doses at 10 secs for each dose; type: functional
Mus musculus [6] = assay: Anesthetic activity in iv dosed ICR mouse assessed as loss of righting reflex administered 7 to 8 doses at 10 secs for each dose; type: functional
Rattus norvegicus [7] = species on record: Rattus norvegicus; assay: Displacement of [35S]TBPS from GABAA receptor in Wistar rat cerebral cortex membranes after 3 hrs by scintillation counting method; details: Membrane
Rattus norvegicus [8] = species on record: Rattus norvegicus; assay: Displacement of [35S]TBPS from GABAA receptor in Wistar rat cerebral cortex membranes at 10 uM after 3 hrs by scintillation counting method; details: Membrane
Rattus norvegicus [9] = species on record: Rattus norvegicus; assay: Displacement of [35S]TBPS from GABAA receptor in Wistar rat cerebral cortex membranes at 1 uM after 3 hrs by scintillation counting method; details: Membrane
Rattus norvegicus [10] = species on record: Rattus norvegicus; details: in vivo, iv, 1 mg/kg
[11] = Volume of distribution at steady state in Sprague-Dawley rat at 1 mg/kg, iv by LC-MS/MS analysis; type: ADME, organism-based; details: in vivo, read-out: Vdss
Rattus norvegicus [12] = assay: Cmax in Sprague-Dawley rat at 1 mg/kg, iv by LC-MS/MS analysis; type: ADME, organism-based; design: dose 1 mg/kg, route intravenous; details: in vivo
[13] = Toxicity in mouse; type: organism-based; details: in vivo
Mus musculus [14] = assay: Anesthetic activity in mouse model assessed as loss of righting reflex; type: functional
[15] = Therapeutic index, ratio of LD50 for toxicity in mouse to ED50 for anesthetic effect in mouse

SMILES | Time (Mus musculus [1]) | Time (Mus musculus [2]) | Activity (Mus musculus [3]) | LD50 at 10 s [4] | Time (Mus musculus [5]) | ED50 (Mus musculus [6]) | inhibition (Rattus norvegicus [7]) | inhibition (Rattus norvegicus [8]) | inhibition (Rattus norvegicus [9]) | AUCt (Rattus norvegicus [10]) | Vd [11] | Cmax (Rattus norvegicus [12]) | LD50 [13] | ED50 (Mus musculus [14]) | Ratio LD50/ED50 [15]
CC(c1cccc(C2(C)CC2)c1O)C1CC1 (racemic) | 306.13 s | 365.75 s | 45 mg/kg | 40 mg/kg | 9.5 s | – | – | – | – | – | – | – | – | – | –
C[C@H](c1cccc([C@@H](C)C2CC2)c1O)C1CC1 | 150.8 s | 567.33 s | 40 mg/kg | 149 mg/kg | 7 s | 19.5 mg/kg | Dose-dependent effect | 35% | – | – | – | – | – | – | –
CC(c1ccccc1O)C1CC1 (racemic) | 329.6 s | 598 s | 30 mg/kg | 64.8 mg/kg | <10 s | 14 mg/kg | – | – | – | – | – | – | – | – | –
CC[C@H](C)c1cccc([C@@H](C)C2CC2)c1O | 224 s | 643.4 s | 10 mg/kg | – | <10 s | – | Dose-dependent effect | 47% | 5% | – | – | – | – | – | –
CC(C)c1cccc(C(C)C)c1O [PROPOFOL] | 50 s | 303.2 s | 25 mg/kg | – | <10 s | – | Dose-dependent effect | 10% | – | 76.9 ng·h/mL | 5.23 L/kg | 384 ng/mL | – | – | –
CC[C@H](C)c1cccc([C@H](C)C2CC2)c1OCOP(=O)([O-])[O-].[Na+].[Na+] | – | – | – | – | – | – | – | – | – | – | – | – | 91.8 mg/kg | 24.3 mg/kg | 3.8
C[C@H](c1cccc([C@H](C)C2CC2)c1O)C1CC1 | 24.5 s | 492.17 s | 20 mg/kg | 43.6 mg/kg | <10 s | 5.9 mg/kg | Dose-dependent effect | 78% | -5% | – | – | – | – | – | –
C[C@H](c1cccc([C@H](C)C2CC2)c1OCOP(=O)([O-])[O-])C1CC1.[Na+].[Na+] | – | – | – | – | – | – | – | – | – | – | – | – | – | 35.8 mg/kg | 4
CC(C)c1cccc([C@@H](C)C2CC2)c1OCOP(=O)([O-])[O-].[Na+].[Na+] | – | – | – | – | – | – | – | – | – | – | – | – | – | 82.7 mg/kg | 4.5
CC[C@@H](C)c1cccc([C@H](C)CC)c1O | 39.83 s | 459.83 s | 10 mg/kg | 23.8 mg/kg | 18 s | 2.69 mg/kg | Dose-dependent effect | 29% | 0% | – | – | – | – | – | –
CC[C@@H](C)c1cccc([C@@H](C)C2CC2)c1O | 192.33 s | 418 s | 4 mg/kg | 8.3 mg/kg | <10 s | 1.3 mg/kg | Dose-dependent effect | 63% | -1% | – | – | – | – | – | –
C[C@H](c1cccc([C@@H](C)C2CC2)c1OCOP(=O)([O-])[O-])C1CC1.[Na+].[Na+] | – | – | – | – | – | – | – | – | – | – | – | – | – | 94.7 mg/kg | 2.9
CC[C@@H](C)c1cccc([C@H](C)C2CC2)c1OCOP(=O)([O-])[O-].[Na+].[Na+] | – | – | – | – | – | – | – | – | – | – | – | – | 63.7 mg/kg | 15.9 mg/kg | 4
CC(C)c1cccc(C(C)C2CC2)c1O (racemic) | 78 s | 518.5 s | 10 mg/kg | – | <10 s | – | Dose-dependent effect | 3% | – | – | – | – | – | – | –
CCC(c1cccc(C(C)C)c1O)C1CC1 (racemic) | 50.38 s | 523.57 s | – | 53.2 mg/kg | 13.6 s | 6.2 mg/kg | – | – | – | – | – | – | – | – | –
COc1cccc(C(C)C2CC2)c1O (racemic) | 79 s | 364.14 s | – | – | <10 s | 7.4 mg/kg | – | – | – | – | – | – | – | – | –
CC[C@H](C)c1cccc([C@H](C)C2CC2)c1O | 363.67 s | 545 s | 20 mg/kg | 65.4 mg/kg | <10 s | – | Dose-dependent effect | 34% | -9% | – | – | – | – | – | –
CC(C)c1cccc(C(C)C2CCC2)c1O (racemic) | 46 s | 364 s | – | 40 mg/kg | 43.5 s | – | – | – | – | – | – | – | – | – | –
CCc1cccc(C(C)C2CC2)c1O (racemic) | 226.57 s | 409.57 s | – | 57.1 mg/kg | <10 s | 7.7 mg/kg | – | – | – | – | – | – | – | – | –
CC(C)c1cccc(C(C)C2CCCC2)c1O (racemic) | 441.6 s | 737.33 s | 40 mg/kg | 115 mg/kg | 5 s | 19.9 mg/kg | – | – | – | – | – | – | – | – | –
CC(c1cccc(C(C)C2CC2)c1O)C1CC1 (racemic) | 233.83 s | 563.63 s | – | > 15 mg/kg | <10 s | – | Dose-dependent effect | 91% | 13% | – | – | – | – | – | –
CC(c1cccc(C2CC2)c1O)C1CC1 (racemic) | 193.63 s | 500.67 s | – | 80 mg/kg | <10 s | 14.6 mg/kg | – | – | – | – | – | – | – | – | –
CC(C)c1cccc([C@@H](C)C2CC2)c1O | 168.33 s | 344 s | 30 mg/kg | 50 mg/kg | 5.71 s | 7.9 mg/kg | Dose-dependent effect | 9% | 3% | – | – | – | – | – | –
CCC(c1cccc(C(C)C2CC2)c1O)C1CC1 (racemic) | 205.8 s | 670.13 s | 20 mg/kg | 74.7 mg/kg | 7.5 s | 9 mg/kg | – | – | – | – | – | – | – | – | –
Cc1cccc(C(C)C2CC2)c1O (racemic) | 122 s | 198.33 s | – | 54.9 mg/kg | <10 s | 7.4 mg/kg | – | – | – | – | – | – | – | – | –
CC(c1cccc(C(C2CC2)C2CC2)c1O)C1CC1 (racemic) | 326.5 s | 761.33 s | 20 mg/kg | 98.2 mg/kg | <10 s | 9.8 mg/kg | – | – | – | – | – | – | – | – | –
CC(C)c1cccc(C(C2CC2)C2CC2)c1O | 220.17 s | 2616.4 s | 50 mg/kg | > 100 mg/kg | <10 s | – | – | – | – | – | – | – | – | – | –
CC(C)c1cccc([C@@H](C)C2CCC2)c1O | 191.8 s | 450.43 s | 100 mg/kg | 107 mg/kg | 15.63 s | – | – | – | – | – | – | – | – | – | –
CCC(C)c1cccc(C(C)C2CC2)c1O (racemic) | 130.71 s | 418.14 s | 20 mg/kg | – | <10 s | – | Dose-dependent effect | 74% | -3% | – | – | – | – | – | –
CC(C)c1cccc([C@H](C)C2CCC2)c1O | 89.11 s | 443.5 s | – | – | <10 s | – | – | – | – | – | – | – | – | – | –
